These results are taken from patent publication EP0938471B1, “THE PREPARATION AND USE OF ORTHO-SULFONAMIDO ARYL HYDROXAMIC ACIDS AS MATRIX METALLOPROTEINASE AND TACE INHIBITORS” (priority 1996, dated 1998).

Common to all, as to format: biochemical
Assay [1] addresses T1, MMP-1 (Homo sapiens, UniProt P03956).
T1 sequence (P03956 100-469): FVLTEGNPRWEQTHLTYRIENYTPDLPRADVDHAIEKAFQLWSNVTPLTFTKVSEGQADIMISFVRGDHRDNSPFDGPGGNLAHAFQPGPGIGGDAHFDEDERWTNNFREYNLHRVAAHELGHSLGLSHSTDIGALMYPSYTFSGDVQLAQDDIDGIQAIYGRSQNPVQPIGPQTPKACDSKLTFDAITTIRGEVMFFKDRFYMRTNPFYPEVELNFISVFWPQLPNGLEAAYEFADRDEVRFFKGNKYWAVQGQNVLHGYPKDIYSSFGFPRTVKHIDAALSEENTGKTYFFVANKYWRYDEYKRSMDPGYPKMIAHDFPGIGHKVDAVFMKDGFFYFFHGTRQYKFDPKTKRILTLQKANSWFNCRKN
Kind of assay: MMP-1 inhibition (thiopeptide or fluorescent peptide substrate assay). Conditions: for MMP-1 % inhibition: concentration given as (10), unit not given; for IC50: read-out: MMP-1 IC50; for inhibition at 1 µM: read-out: MMP-1 % inhibition, footnote: 1µM.

In assay [2] the target is MMP-9 (Homo sapiens, UniProt P14780). Kind of assay: MMP-9 inhibition (thiopeptide or fluorescent peptide substrate assay). Conditions: for inhibition at 1 µM: read-out: MMP-9 % inhibition, footnote: 1µM; for IC50: read-out: MMP-9 IC50.
Procedure: The enzyme activity is measured by the rate of the color increase. The thiopeptide substrate is made up fresh as a 20 mM stock in 100% DMSO and the DTNB is dissolved in 100% DMSO as a 100 mM stock and stored in the dark at room temperature. Both the substrate and DTNB are diluted together to 1 mM with substrate buffer (50 mM HEPES pH 7.5, 5 mM CaCl2) before use. […] Alternatively, a fluorescent peptide substrate is used. In this assay, the peptide substrate contains a fluorescent group and a quenching group. Upon cleavage of the substrate by an MMP, the fluorescence that is generated is quantitated on the fluorescence plate reader. […] The substrate is dissolved in methanol and stored frozen in 1 mM aliquots. For the assay, substrate and enzymes are diluted in HCBC buffer to the desired concentrations. Compounds are added to the 96 well plate containing enzyme and the reaction is started by the addition of substrate. […] For either the thiopeptide or fluorescent peptide assays, the slope of the line is calculated and represents the reaction rate. […] The mean (x±sem) of the control rate is calculated and compared for statistical significance (p<0.05) with drug-treated rates using Dunnett's multiple comparison test.
In assay [3] the target is MMP-13 (Homo sapiens, UniProt P45452). The assay can be described thus: MMP-13 inhibition (thiopeptide or fluorescent peptide substrate assay). As to conditions: for inhibition at 1 µM: read-out: MMP-13 % inhibition, footnote: 1µM.
Assay [4] addresses TACE (Homo sapiens, UniProt P78536). The assay can be described thus: TACE inhibition (fluorescent peptidyl substrate). As to conditions: for inhibition at 1 µM: at 1µM concentration.
Setting [5] is: concentration given as (.1), unit not given.

Each structure is given as a SMILES string. Structures can show the parent of a compound that is named as a salt. Where two headings read alike, the source gives them in different places.

Chain of MMP-9 (P14780 94-707): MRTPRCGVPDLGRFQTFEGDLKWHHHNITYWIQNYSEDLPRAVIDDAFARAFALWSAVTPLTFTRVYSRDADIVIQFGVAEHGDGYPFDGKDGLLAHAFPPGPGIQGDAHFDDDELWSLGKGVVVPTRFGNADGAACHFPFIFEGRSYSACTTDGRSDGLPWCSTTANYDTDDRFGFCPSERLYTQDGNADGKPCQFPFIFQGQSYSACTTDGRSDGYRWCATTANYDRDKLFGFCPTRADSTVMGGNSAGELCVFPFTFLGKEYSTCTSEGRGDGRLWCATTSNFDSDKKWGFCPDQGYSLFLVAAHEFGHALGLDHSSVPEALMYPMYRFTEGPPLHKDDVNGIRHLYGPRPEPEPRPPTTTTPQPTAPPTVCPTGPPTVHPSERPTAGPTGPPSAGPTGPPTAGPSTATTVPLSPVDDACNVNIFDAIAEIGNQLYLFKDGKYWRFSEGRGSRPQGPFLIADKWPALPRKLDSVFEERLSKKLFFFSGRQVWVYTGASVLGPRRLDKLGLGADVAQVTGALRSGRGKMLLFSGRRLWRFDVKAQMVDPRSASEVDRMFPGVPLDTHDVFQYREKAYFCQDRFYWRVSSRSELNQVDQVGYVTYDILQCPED
Chain of TACE (P78536 215-824): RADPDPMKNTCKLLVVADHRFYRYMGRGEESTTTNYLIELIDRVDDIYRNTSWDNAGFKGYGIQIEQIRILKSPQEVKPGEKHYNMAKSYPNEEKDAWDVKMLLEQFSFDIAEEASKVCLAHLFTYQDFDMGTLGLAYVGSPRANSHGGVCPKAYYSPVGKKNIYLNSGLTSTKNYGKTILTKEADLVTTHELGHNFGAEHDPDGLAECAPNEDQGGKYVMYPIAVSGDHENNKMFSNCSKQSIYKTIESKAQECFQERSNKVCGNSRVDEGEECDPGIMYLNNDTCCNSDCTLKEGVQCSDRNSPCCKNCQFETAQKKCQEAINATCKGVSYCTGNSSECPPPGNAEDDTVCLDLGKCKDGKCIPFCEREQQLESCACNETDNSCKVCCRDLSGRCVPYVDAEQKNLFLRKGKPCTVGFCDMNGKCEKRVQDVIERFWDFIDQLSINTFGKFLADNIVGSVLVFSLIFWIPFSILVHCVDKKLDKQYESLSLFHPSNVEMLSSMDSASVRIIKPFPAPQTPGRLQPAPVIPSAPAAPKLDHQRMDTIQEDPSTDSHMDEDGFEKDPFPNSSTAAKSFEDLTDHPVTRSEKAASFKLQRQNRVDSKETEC

With `COc1ccc(S(=O)(=O)N(Cc2cccnc2)c2c(C(=O)O)cccc2C(=O)NO)cc1` [Example 374, N-Hydroxy-2-[(4-methoxy-benzenesulfonyl)-pyridin-3-ylmethyl-amino]-isophthalamic acid], the MMP-1 % inhibition in assay [1] was 56%(10). The values for the inhibition at 1 µM in assay [2], in assay [3] and in assay [4] were 36%, 17% and 29%, respectively.
With `COc1ccc(S(=O)(=O)N(Cc2ccccn2)c2c(C)cccc2C(=O)NO)cc1` [Example 375, N-Hydroxy-2-[(4-methoxy-benzenesulfonyl)-pyridin-2-ylmethyl-amino]-3-methyl-benzamide], the IC50 was determined as 329 nM in assay [1], 7.1 nM in assay [2], 18 nM in assay [3] (read-out: MMP-13 IC50) and 356 nM in assay [4] (read-out: TACE IC50).
In the same order, the values of `COc1ccc(S(=O)(=O)N(Cc2ccncc2)c2c(C)cccc2C(=O)NO)cc1` [Example 376, N-Hydroxy-2-[(4-methoxy-benzenesulfonyl)-pyridin-4-ylmethyl-amino]-3-methyl-benzamide] are 391 nM, 8.4 nM, 18 nM and 645 nM.
The corresponding values for `CCN(CC)Cc1ccc(CN(c2c(C)cccc2C(=O)NO)S(=O)(=O)c2ccc(OC)cc2)cc1` [Example 377, 2-[(4-Diethylaminomethyl-benzyl)-(4-methoxy-benzenesulfonyl)-amino]-N-hydroxy-3-methyl-benzamide] are 123 nM, 4.7 nM, 15 nM and 258 nM.
In the same order, the values of `COc1ccc(S(=O)(=O)N(Cc2ccc(CN(C)C)cc2)c2c(C)cccc2C(=O)NO)cc1` [Example 378, 2-[(4-Dimethylaminomethyl-benzyl)-(4-methoxy-benzenesulfonyl)-amino]-N-hydroxy-3-methyl-benzamide] are 213 nM, 2.9 nM, 11 nM and 243 nM.
`CCN(CC)CC#CCN(c1c(C)cccc1C(=O)NO)S(=O)(=O)c1ccc(OC)cc1` [Example 381, 2-[(4-Diethylamino-but-2-ynyl)-(4-methoxy-benzenesulfonyl)-amino]-N-hydroxy-3-methyl-benzamide]: the IC50 in assay [1] is 470 nM; in assay [2], 11 nM; in assay [3] (read-out: MMP-13 IC50), 19 nM; in assay [4] (read-out: TACE IC50), 218 nM.
For the molecule `CCOC(=O)CCCN(c1c(C)cccc1C(=O)NO)S(=O)(=O)c1ccc(OC)cc1` [Example 383, 4-[(2-Hydroxycarbamoyl-6-methyl-phenyl)-(4-methoxy-benzenesulfonyl)-amino]-butyric acid ethyl ester], the inhibition at 1 µM in assay [1] was determined as 34%; in assay [2], 87%; in assay [3], 48%; in assay [4], 45%.
The corresponding values for `CCOC(=O)CCCCN(c1c(C)cccc1C(=O)NO)S(=O)(=O)c1ccc(OC)cc1` [Example 384, 5-[(2-Hydroxycarbamoyl-6-methyl-phenyl)-(4-methoxy-benzenesulfonyl)-amino]-pentanoic acid ethyl ester] are 48%, 52%, 61% and 55%.
In the same order, the values of `COc1ccc(S(=O)(=O)N(CC(=O)OCc2ccccc2)c2c(C)cccc2C(=O)NO)cc1` [Example 385, [(2-Hydroxycarbamoyl-6-methyl-phenyl)-(4-methoxy-benzenesulfonyl)-amino]-acetic acid benzyl ester] are 25%, 65%, 66% and 56%.
On to `COc1ccc(S(=O)(=O)N(CC(=O)NCc2ccccn2)c2c(C)cccc2C(=O)NO)cc1` [Example 386, N-Hydroxy-2-[[(4-methoxyphenyl)sulfonyl][2-oxo-2-[(2-pyridinylmethyl)amino]ethyl]amino]-3-methylbenzamide], for which the results for the inhibition at 1 µM in assay [1] and in assay [4] were 21% and 46%, respectively. For the same molecule, the MMP-9 % inhibition in assay [2] (setting [5]) is 16%(.1). In addition, in assay [3] (setting [5]), the MMP-13 % inhibition was 11%(.1).
With `COc1ccc(S(=O)(=O)N(CC(=O)N2CCN(C)CC2)c2c(C)cccc2C(=O)NO)cc1` [Example 387, N-Hydroxy-2-{(4-methoxy-benzenesulfonyl)-[2-(4-methyl-piperazin-1-yl)-2-oxo-ethyl]-amino}-3-methyl-benzamide], the IC50 in assay [1] was determined as 2720 nM; in assay [2] it was 96 nM; in assay [3] (read-out: MMP-13 IC50), 307 nM. In addition, in assay [4], 1 µM produced 38% inhibition.
For `COc1ccc(S(=O)(=O)N(CCO)c2c(C)cccc2C(=O)NO)cc1` [Example 388, N-Hydroxy-2-[(2-hydroxy-ethyl)-(4-methoxy-benzenesulfonyl)-amino]-3-methyl-benzamide], the MMP-1 % inhibition in assay [1] is 66%(10). In addition, the inhibition at 1 µM came to 47% in assay [2], 39% in assay [3] and 35% in assay [4].
As to `COc1ccc(S(=O)(=O)N(Cc2ccccc2)c2c(C)cc(N(C)C)cc2C(=O)NO)cc1` [Example 389, 2-[Benzyl-(4-methoxy-benzenesulfonyl)-amino]-5-dimethylamino-N-hydroxy-3-methyl-benzamide], the IC50 is 63 nM in assay [1], 2 nM in assay [2], 39 nM in assay [3] (read-out: MMP-13 IC50) and 633 nM in assay [4] (read-out: TACE IC50).
On to `COc1ccc(S(=O)(=O)N(Cc2ccc(OCCN3CCCCC3)cc2)c2c(C)cccc2C(=O)NO)cc1` [Example 393, N-Hydroxy-2-[[(4-methoxyphenyl)sulfonyl][[4-[2-(1-piperidinyl)ethoxy]phenyl]methyl]amino]-3-methylbenzamide], for which the IC50 in assay [1] is 176 nM; in assay [2], 6.9 nM; in assay [3], 56 nM; in assay [4] it was 277 nM.
As to `CCN(CC)CCOc1ccc(CN(c2c(C)cccc2C(=O)NO)S(=O)(=O)c2ccc(OC)cc2)cc1` [Example 394, 2-[[4-(2-Diethylamino-ethoxy)-benzyl]-(4-methoxy-benzenesulfonyl)-amino]-N-hydroxy-3-methyl-benzamide], the IC50 in assay [1] was determined as 96 nM; in assay [2], 2.3 nM; in assay [3] (read-out: MMP-13 IC50), 8.8 nM; in assay [4] (read-out: TACE IC50), 215 nM.
Consider `COc1ccc(S(=O)(=O)N(Cc2ccc(OCCN3CCCCC3)cc2)c2c(C)cc(Br)cc2C(=O)NO)cc1` [Example 395, 5-Bromo-N-hydroxy-2-{(4-methoxy-benzenesulfonyl)-[4-(2-piperidin-1-yl-ethoxy)-benzyl]-amino}-3-methyl-benzamide], for which the IC50 in assay [1] was 35 nM; in assay [2] it was 2.3 nM; in assay [3] (read-out: MMP-13 IC50) it was 3.1 nM; in assay [4] (read-out: TACE IC50), 108 nM.
In the case of `COc1ccc(S(=O)(=O)N(Cc2ccc(C(=O)NCCN3CCCCC3)cc2)c2c(C)cccc2C(=O)NO)cc1` [Example 396], the IC50 in assay [1] worked out at 184 nM; in assay [2], 6.3 nM; in assay [3] (read-out: MMP-13 IC50) it was 35 nM; in assay [4] (read-out: TACE IC50), 363 nM.
On to `COc1ccc(-c2ccc(-c3cc(C)c(N(Cc4cccnc4)S(=O)(=O)c4ccc(OC)cc4)c(C(=O)NO)c3)cc2)cc1` [Example 399, 4"-Methoxy-4-[(4-methoxy-benzenesulfonyl)-pyridin-3-ylmethyl-amino]-5-methyl-[1,1';4',1"]terphenyl-3-carboxylic acid hydroxyamide hydrochloride salt], for which the IC50 in assay [1] turned out to be 2200 nM; in assay [2], 45 nM; in assay [3] (read-out: MMP-13 IC50), 41 nM. Also, in assay [4], the inhibition at 1 µM came to 25%.
For `COc1ccc(S(=O)(=O)N(Cc2cccnc2)c2c(C)cc(-c3cccc([N+](=O)[O-])c3)cc2C(=O)NO)cc1` [Example 400, 4-[(4-Methoxy-benzenesulfonyl)-pyridin-3-ylmethyl-amino]-5-methyl-3'-nitro-biphenyl-3-carboxylic acid hydroxyamide hydrochloride salt], the IC50 was 295 nM in assay [1], 6 nM in assay [2], 4.9 nM in assay [3] (read-out: MMP-13 IC50) and 231 nM in assay [4] (read-out: TACE IC50).
The corresponding values for `COc1ccc(-c2cc(C)c(N(Cc3cccnc3)S(=O)(=O)c3ccc(OC)cc3)c(C(=O)NO)c2)cc1` [Example 401, 4'-Methoxy-4-[(4-methoxy-benzenesulfonyl)-pyridin-3-ylmethyl-amino]-5-methyl-biphenyl-3-carboxylic acid hydroxyamide hydrochloride salt] are 176 nM, 1.4 nM, 2.8 nM and 146 nM.
With `COc1ccc(S(=O)(=O)N(Cc2cccnc2)c2c(C)cc(-c3cc4ccccc4s3)cc2C(=O)NO)cc1` [Example 402, 5-Benzo[b]thiophen-2-yl-N-hydroxy-2-[(4-methoxy-benzenesulfonyl)-pyridin-3-ylmethyl-amino]-3-methyl-benzamide hydrochloride salt], the IC50 in assay [1] was determined as 543 nM; in assay [2], 2.6 nM; in assay [3] (read-out: MMP-13 IC50) it was 8.5 nM; in assay [4] (read-out: TACE IC50), 639 nM.
